Publication PMC4160910 (European journal of medicinal chemistry, 2014)

Legend:
[1] = system: all stages of S. mansoni; settings: ref [14],[20]; cited from earlier work
[2] = system: cultured adult S. japonicum worms; settings: ref [14],[20]; cited from earlier work
[3] = system: cultured adult S. haematobium worms; settings: ref [14],[20]; cited from earlier work
[4] = system: adult Schistosoma mansoni worms; test: Worm killing of cultured adult worms, monitored over 144 hrs; format: cell-based; settings: at the concentrations tested (10 and 50 µM)
[5] = system: adult Schistosoma mansoni worms; test: Worm contraction of cultured adult worms; format: cell-based; settings: after overnight culture with compound, 10 and 50 µM

| Compound | Activity against all stages of S. mansoni [1] | Activity against cultured adult S. japonicum worms [2] | Activity against cultured adult S. haematobium worms [3] | Time at which worms begin to die after compound is removed from culture media [4] | Time for worms to return to normal length [5] |
| --- | --- | --- | --- | --- | --- |
| N#Cc1c(-c2ccccc2)no[n+]1[O-] [Compound 2, 4-phenylfuroxan-3-carbonitrile] | active | active | active | – | – |
| O=C(C1CCCCC1)N1CC(=O)N2CCc3ccccc3C2C1 (centres unmarked) [PZQ, 2-(cyclohexylcarbonyl)-1,2,3,6,7,11b-hexahydro-4H-pyrazino[2,1-a]isoquinolin-4-one] | – | – | – | 4 to 5 days | > 2 days |
